Assay results: patent publication US8575136B2, “2-methylene-1α-hydroxy-18,19,21-trinorvitamin D3 analogs and uses thereof” (Wisconsin Alumni Research Foundation, priority 2006, dated 2013)
“Also recorded” adds a separate entry of the source.

Experiments:
[1] = test system: HL-60 cells; assay: HL-60 differentiation (nitro blue tetrazolium reduction); format: cell-based, human; settings: compared to 1α,25-dihydroxyvitamin D3; FIG. 4
Method: The study drugs were dissolved in ethanol and the concentrations determined using UV spectrophotometry. Serial dilutions were prepared so that a range of drug concentrations could be tested without changing the final concentration of ethanol (<0.2%) present in the cell cultures.
Human promyelocytic leukemia (HL60) cells were grown in RPMI-1640 medium containing 10% fetal bovine serum. The cells were incubated at 37° C. in the presence of 5% CO2.
HL60 cells were plated at 1.2×10^5 cells/ml. Eighteen hours after plating, cells in duplicate were treated with drug. Four days later, the cells were harvested and a nitro blue tetrazolium reduction assay was performed (Collins et al., 1979; J. Exp. Med. 149:969-974). The percentage of differentiated cells was determined by counting a total of 200 cells and recording the number that contained intracellular black-blue formazan deposits. Verification of differentiation to monocytic cells was determined by measuring phagocytic activity (data not shown).

[2] = Intestinal calcium transport (everted gut sac method); design: species or system Sprague-Dawley rats; settings: in vivo, rats, ip doses; FIG. 3
Method: (§1) Male, weanling Sprague-Dawley rats were placed on Diet 11 (0.47% Ca) diet+AEK for one week followed by Diet 11 (0.02% Ca)+AEK for 3 weeks. The rats were then switched to a diet containing 0.47% Ca for one week followed by two weeks on a diet containing 0.02% Ca. Dose administration began during the last week on 0.02% calcium diet. Four consecutive ip doses were given approximately 24 hours apart. Twenty-four hours after the last dose, blood was collected from the severed neck and the concentration of serum calcium determined as a measure of bone calcium mobilization. The first 10 cm of the intestine was also collected for intestinal calcium transport analysis using the everted gut sac method. The everted gut sac assay was carried out as previously described by Martin and Deluca, Am. J. Physiol. 216, 1351 (1969); (DeLuca et al., U.S. Pat. No. 4,188,345), which are incorporated by reference as if fully set forth herein.
Both control and test articles are administered by intraperitoneal injection in 100 microliters for 4-7 consecutive days spaced approximately 24 hours apart.

[3] = molecular target: T1, full-length recombinant rat vitamin D receptor (Rattus norvegicus, UniProt P13053); assay: Vitamin D receptor binding, competition with [3H]-1,25-(OH)2-D3; settings: compared to 1α,25-dihydroxyvitamin D3; FIG. 1
T1 construct: Full-length recombinant rat receptor was expressed in E. coli BL21(DE3) Codon Plus RIL cells; histidine tag (C); made in house; host or cells: E. coli BL21(DE3) Codon Plus RIL
T1 sequence (P13053 1-423): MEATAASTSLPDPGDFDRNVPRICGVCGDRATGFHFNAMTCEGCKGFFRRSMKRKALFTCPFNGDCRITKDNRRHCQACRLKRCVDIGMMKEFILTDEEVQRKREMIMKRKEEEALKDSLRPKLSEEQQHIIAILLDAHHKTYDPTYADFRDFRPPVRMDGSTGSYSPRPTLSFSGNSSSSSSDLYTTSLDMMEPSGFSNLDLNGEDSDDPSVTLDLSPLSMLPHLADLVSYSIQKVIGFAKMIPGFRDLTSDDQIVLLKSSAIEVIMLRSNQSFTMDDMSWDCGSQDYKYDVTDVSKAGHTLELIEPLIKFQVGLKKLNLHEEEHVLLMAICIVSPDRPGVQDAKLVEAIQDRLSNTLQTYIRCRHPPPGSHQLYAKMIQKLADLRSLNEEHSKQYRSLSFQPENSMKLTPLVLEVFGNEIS
Method: Full-length recombinant rat receptor was expressed in E. coli BL21(DE3) Codon Plus RIL cells and purified to homogeneity using two different column chromatography systems. The first system was a nickel affinity resin that utilizes the C-terminal histidine tag on this protein. The protein that was eluted from this resin was further purified using ion exchange chromatography (S-Sepharose Fast Flow). Aliquots of the purified protein were quick frozen in liquid nitrogen and stored at −80° C. until use. For use in binding assays, the protein was diluted in TEDK50 (50 mM Tris, 1.5 mM EDTA, pH7.4, 5 mM DTT, 150 mM KCl) with 0.1% Chaps detergent. The receptor protein and ligand concentration was optimized such that no more than 20% of the added radiolabeled ligand was bound to the receptor.
Radiolabeled ligand (^3H-1,25(OH)2D3, ˜159 Ci/mmole) was added in ethanol at a final concentration of 1 nM.
Radiolabeled and unlabeled ligands were added to 100 mcl of the diluted protein at a final ethanol concentration of <10%, mixed and incubated overnight on ice to reach binding equilibrium. The following day, 100 mcl of hydroxylapatite slurry (50%) was added to each tube and mixed at 10-minute intervals for 30 minutes. […] Total binding was determined from the tubes containing only radiolabeled ligand.

[4] = Bone calcium mobilization (serum calcium); design: species or system Sprague-Dawley rats; settings: in vivo, rats, ip doses; FIG. 2
Method: as §1, with “herein. […]” for “herein.”
Twenty-four hours after the final dose, approximately 1 ml of blood is allowed to coagulate at room temperature and then centrifuged at 3000×g for 15 minutes. […] The level of calcium is determined by diluting the serum into 0.1% lanthum chloride and measuring the absorbance on an atomic absorption spectrophotometer (Perkin Elmer Model 3110, Shelton, Conn.).

[5] = test system: 24-hydyroxylase (24Ohase) gene promoter upstream of a luciferase reporter gene in ROS 17/2.8 (bone) cells; assay: In vitro transcription assay (luciferase reporter); format: cell-based; settings: Ros17/2.8 (bone) cells, compared to 1α,25-dihydroxyvitamin D3; FIG. 5
Method: Transcription activity was measured in ROS 17/2.8 (bone) cells that were stably transfected with a 24-hydyroxylase (24Ohase) gene promoter upstream of a luciferase reporter gene (Arbour et al., 1998). Cells were given a range of doses. Sixteen hours after dosing the cells were harvested and luciferase activities were measured using a luminometer. (RLU=relative luciferase units)

C=C1[C@H](O)CC(=C/C=C2\CCC[C@@H]3[C@@H](CCCCC(C)C)CC[C@@H]23)C[C@H]1O [SX-99, 2-methylene-1α-hydroxy-18,19,21-trinorvitamin D3]
inducing differentiation of HL-60 cells [1]: slightly less active; also recorded: relatively high cell differentiation activity | intestinal calcium transport activity [2]: potent calcium transport activity; also recorded: significant intestinal calcium transport activity | binding to the recombinant vitamin D receptor [3]: considerably less active; also recorded: relatively high binding | bone calcium mobilization activity [4]: significant bone calcium mobilization activity; also recorded: good ability to mobilize calcium from bone | stimulating transcription of a reporter gene [5]: less active
